Experiments:
barnyard grass [1] = assay: Test Example 5: herbicidal effect by foliage application, plastic box (Table 20, symbol H); format: in vivo, barnyard grass (Echinochloa crus-galli); conditions: amount of applied herbicide 320 g/ha; foliage application after 14-day growth; evaluated three weeks after application
Outline: (§1)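 Post-emergence foliar test in sterilized diluvial soil. Compound applied as water-diluted emulsion at a predetermined rate to 14-day-old plants; evaluation at three weeks.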

windgrass [2] = assay: Test Example 5: herbicidal effect by foliage application, plastic box (Table 20, symbol L); format: in vivo, windgrass (Apera spica-venti); conditions: amount of applied herbicide 320 g/ha; foliage application after 14-day growth; evaluated three weeks after application
Outline: as §1

velvetleaf [3] = assay: Test Example 5: herbicidal effect by foliage application, plastic box (Table 20, symbol M); format: in vivo, velvetleaf (Abutilon theophrasti); conditions: amount of applied herbicide 320 g/ha; foliage application after 14-day growth; evaluated three weeks after application
Outline: as §1

persian speedwell [4] = assay: Test Example 5: herbicidal effect by foliage application, plastic box (Table 20, symbol R); format: in vivo, Persian speedwell (Veronica persica); conditions: amount of applied herbicide 320 g/ha; foliage application after 14-day growth; evaluated three weeks after application
Outline: as §1

wild oat [5] = assay: Test Example 5: herbicidal effect by foliage application, plastic box (Table 20, symbol I); format: in vivo, wild oat (Avena fatua); conditions: amount of applied herbicide 320 g/ha; foliage application after 14-day growth; evaluated three weeks after application
Outline: as §1

Japanese bulrush = assay: Test Example 1: herbicidal activity, application before weed generation under submerged conditions (Table 16, symbol B); format: in vivo, Japanese bulrush (Schoenoplectus juncoides); conditions: amount of applied herbicide 320 g/ha
Outline: (§2)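 Emulsion formulation, water-diluted to set dose, was put onto the flooded surface (4 cm depth, alluvial soil) the same day weeds were sown and 2.5-leaf rice transplanted. After 3 weeks at 25-30 °C under glass, each species was rated 0 (≤5% kill) to 5 (≥90% kill).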

green foxtail [6] = assay: Test Example 5: herbicidal effect by foliage application, plastic box (Table 20, symbol G); format: in vivo, green foxtail (Setaria viridis); conditions: amount of applied herbicide 320 g/ha; foliage application after 14-day growth; evaluated three weeks after application
Outline: as §1

late watergrass = assay: Test Example 1: herbicidal activity, application before weed generation under submerged conditions (Table 16, symbol A); format: in vivo, late watergrass (Echinochloa oryzicola); conditions: amount of applied herbicide 320 g/ha
Outline: as §2

oval-leafed pondweed = assay: Test Example 1: herbicidal activity, application before weed generation under submerged conditions (Table 16, symbol C); format: in vivo, oval-leafed pondweed (Monochoria vaginalis); conditions: amount of applied herbicide 320 g/ha
Outline: as §2

Italian ryegrass [7] = assay: Test Example 5: herbicidal effect by foliage application, plastic box (Table 20, symbol K); format: in vivo, Italian ryegrass (Lolium multiflorum); conditions: amount of applied herbicide 320 g/ha; foliage application after 14-day growth; evaluated three weeks after application
Outline: as §1

redroot pigweed [8] = assay: Test Example 5: herbicidal effect by foliage application, plastic box (Table 20, symbol N); format: in vivo, redroot pigweed (Amaranthus retroflexus); conditions: amount of applied herbicide 320 g/ha; foliage application after 14-day growth; evaluated three weeks after application
Outline: as §1

southern crabgrass [9] = assay: Test Example 4: herbicidal effect by soil treatment (Table 19, symbol F); format: in vivo, southern crabgrass (Digitaria ciliaris); conditions: amount of applied herbicide 320 g/ha
Outline: (§3)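 Emulsion of test compound, water-diluted to predetermined amount, sprayed on soil after sowing (seed depth ~1.5 cm, sterilized diluvial soil). Greenhouse, 25–30° C. Effect graded at three weeks post-spray.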

Chinese sprangletop = assay: Test Example 3: herbicidal effect by foliage application, Wagner pot (Table 18, symbol D); format: in vivo, chinese sprangletop (Leptochloa chinensis); conditions: 320 g/ha
Outline: (§4)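 Plants were sown in alluvial soil held under 0.1–0.5 cm standing water and grown 14 days in a greenhouse at 25–30 °C. An emulsifiable formulation, water-diluted to the set dose, was then sprayed onto the foliage, and effects were scored three weeks later using previously defined criteria.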

velvetleaf [10] = assay: Test Example 4: herbicidal effect by soil treatment (Table 19, symbol M); format: in vivo, velvetleaf (Abutilon theophrasti); conditions: amount of applied herbicide 320 g/ha
Outline: as §3

barnyard grass [11] = assay: Test Example 4: herbicidal effect by soil treatment (Table 19, symbol H); format: in vivo, barnyard grass (Echinochloa crus-galli); conditions: amount of applied herbicide 320 g/ha
Outline: as §3

lambsquarters [12] = assay: Test Example 4: herbicidal effect by soil treatment (Table 19, symbol O); format: in vivo, lambsquarters (Chenopodium album); conditions: amount of applied herbicide 320 g/ha
Outline: as §3

southern crabgrass [13] = assay: Test Example 5: herbicidal effect by foliage application, plastic box (Table 20, symbol F); format: in vivo, southern crabgrass (Digitaria ciliaris); conditions: amount of applied herbicide 320 g/ha; foliage application after 14-day growth; evaluated three weeks after application
Outline: as §1

Italian ryegrass [14] = assay: Test Example 4: herbicidal effect by soil treatment (Table 19, symbol K); format: in vivo, Italian ryegrass (Lolium multiflorum); conditions: amount of applied herbicide 320 g/ha
Outline: as §3

lambsquarters [15] = assay: Test Example 5: herbicidal effect by foliage application, plastic box (Table 20, symbol O); format: in vivo, lambsquarters (Chenopodium album); conditions: amount of applied herbicide 320 g/ha; foliage application after 14-day growth; evaluated three weeks after application
Outline: as §1

redroot pigweed [16] = assay: Test Example 4: herbicidal effect by soil treatment (Table 19, symbol N); format: in vivo, redroot pigweed (Amaranthus retroflexus); conditions: amount of applied herbicide 320 g/ha
Outline: as §3

windgrass [17] = assay: Test Example 4: herbicidal effect by soil treatment (Table 19, symbol L); format: in vivo, windgrass (Apera spica-venti); conditions: amount of applied herbicide 320 g/ha
Outline: as §3

wild oat [18] = assay: Test Example 4: herbicidal effect by soil treatment (Table 19, symbol I); format: in vivo, wild oat (Avena fatua); conditions: amount of applied herbicide 320 g/ha
Outline: as §3

barnyard grass [19] = assay: Test Example 3: herbicidal effect by foliage application, Wagner pot (Table 18, symbol H); format: in vivo, barnyard grass (Echinochloa crus-galli); conditions: 320 g/ha
Outline: as §4

chickweed [20] = assay: Test Example 5: herbicidal effect by foliage application, plastic box (Table 20, symbol P); format: in vivo, common chickweed (Stellaria media); conditions: amount of applied herbicide 320 g/ha; foliage application after 14-day growth; evaluated three weeks after application
Outline: as §1

blackgrass [21] = assay: Test Example 5: herbicidal effect by foliage application, plastic box (Table 20, symbol J); format: in vivo, blackgrass (Alopecurus myosuroides); conditions: amount of applied herbicide 320 g/ha; foliage application after 14-day growth; evaluated three weeks after application
Outline: as §1

persian speedwell [22] = assay: Test Example 4: herbicidal effect by soil treatment (Table 19, symbol R); format: in vivo, Persian speedwell (Veronica persica); conditions: amount of applied herbicide 320 g/ha
Outline: as §3

green foxtail [23] = assay: Test Example 4: herbicidal effect by soil treatment (Table 19, symbol G); format: in vivo, green foxtail (Setaria viridis); conditions: amount of applied herbicide 320 g/ha
Outline: as §3

chickweed [24] = assay: Test Example 4: herbicidal effect by soil treatment (Table 19, symbol P); format: in vivo, common chickweed (Stellaria media); conditions: amount of applied herbicide 320 g/ha
Outline: as §3

blackgrass [25] = assay: Test Example 4: herbicidal effect by soil treatment (Table 19, symbol J); format: in vivo, blackgrass (Alopecurus myosuroides); conditions: amount of applied herbicide 320 g/ha
Outline: as §3

rice flat sedge = assay: Test Example 3: herbicidal effect by foliage application, Wagner pot (Table 18, symbol E); format: in vivo, rice flat sedge (Cyperus iria); conditions: 320 g/ha
Outline: as §4

SMILES | Herbicidal effect by foliage application, H: barnyard grass (barnyard grass [1]) | Herbicidal effect by foliage application, L: windgrass (windgrass [2]) | Herbicidal effect by foliage application, M: velvetleaf (velvetleaf [3]) | Herbicidal effect by foliage application, R: persian speedwell (persian speedwell [4]) | Herbicidal effect by foliage application, I: wild oat (wild oat [5]) | Herbicidal effect, B: Japanese bulrush (Japanese bulrush) | Herbicidal effect by foliage application, G: green foxtail (green foxtail [6]) | Herbicidal effect, A: late watergrass (late watergrass) | Herbicidal effect, C: oval-leafed pondweed (oval-leafed pondweed) | Herbicidal effect by foliage application, K: Italian ryegrass (Italian ryegrass [7]) | Herbicidal effect by foliage application, N: redroot pigweed (redroot pigweed [8]) | F: southern crabgrass, herbicidal effect grade (southern crabgrass [9]) | herbicidal effect on Chinese sprangletop (D) (Chinese sprangletop) | M: velvetleaf, herbicidal effect grade (velvetleaf [10]) | H: barnyard grass, herbicidal effect grade (barnyard grass [11]) | O: lambsquarters, herbicidal effect grade (lambsquarters [12]) | Herbicidal effect by foliage application, F: southern crabgrass (southern crabgrass [13]) | K: Italian ryegrass, herbicidal effect grade (Italian ryegrass [14]) | Herbicidal effect by foliage application, O: lambsquarters (lambsquarters [15]) | N: redroot pigweed, herbicidal effect grade (redroot pigweed [16]) | other results
COCc1ccc(-c2sc3cc(F)c(F)cc3c2-c2c(O)c(C)nn(C)c2=O)cc1 [5-009] | 3 (Herbicidal rate of 40% or more and less than 70%) | 0 (Herbicidal rate of 5% or less (almost no effect)) | 4 (Herbicidal rate of 70% or more and less than 90%) | 5 (Herbicidal rate of 90% or more (almost completely withered)) | 0 (Herbicidal rate of 5% or less (almost no effect)) | 0 (Herbicidal rate of 5% or less (almost no effect)) | 3 (Herbicidal rate of 40% or more and less than 70%) | 2 (Herbicidal rate of 20% or more and less than 40%) | 0 (Herbicidal rate of 5% or less (almost no effect)) | 3 (Herbicidal rate of 40% or more and less than 70%) | 5 (Herbicidal rate of 90% or more (almost completely withered)) | 0 (Herbicidal rate of 5% or less (almost no effect)) | 3 (Herbicidal rate of 40% or more and less than 70%) | 2 (Herbicidal rate of 20% or more and less than 40%) | 0 (Herbicidal rate of 5% or less (almost no effect)) | 4 (Herbicidal rate of 70% or more and less than 90%) | 2 (Herbicidal rate of 20% or more and less than 40%) | 0 (Herbicidal rate of 5% or less (almost no effect)) | 3 (Herbicidal rate of 40% or more and less than 70%) | 4 (Herbicidal rate of 70% or more and less than 90%) | L: windgrass, herbicidal effect grade (windgrass [17]): 0 (Herbicidal rate of 5% or less (almost no effect)); I: wild oat, herbicidal effect grade (wild oat [18]): 0 (Herbicidal rate of 5% or less (almost no effect)); herbicidal effect on barnyard grass (H) (barnyard grass [19]): 4 (Herbicidal rate of 70% or more and less than 90%); Herbicidal effect by foliage application, P: chickweed (chickweed [20]): 5 (Herbicidal rate of 90% or more (almost completely withered)); Herbicidal effect by foliage application, J: blackgrass (blackgrass [21]): 0 (Herbicidal rate of 5% or less (almost no effect)); R: persian speedwell, herbicidal effect grade (persian speedwell [22]): 5 (Herbicidal rate of 90% or more (almost completely withered)); G: green foxtail, herbicidal effect grade (green foxtail [23]): 2 (Herbicidal rate of 20% or more and less than 40%); P: chickweed, herbicidal effect grade (chickweed [24]): 5 (Herbicidal rate of 90% or more (almost completely withered)); J: blackgrass, herbicidal effect grade (blackgrass [25]): 0 (Herbicidal rate of 5% or less (almost no effect)); herbicidal effect on rice flat sedge (E) (rice flat sedge): 3 (Herbicidal rate of 40% or more and less than 70%)
CCOc1ccccc1-c1sc2cc(F)c(F)cc2c1-c1c(O)c(C)nn(C)c1=O [5-016] | 5 (Herbicidal rate of 90% or more (almost completely withered)) | 5 (Herbicidal rate of 90% or more (almost completely withered)) | 5 (Herbicidal rate of 90% or more (almost completely withered)) | 5 (Herbicidal rate of 90% or more (almost completely withered)) | 0 (Herbicidal rate of 5% or less (almost no effect)) | 1 (Herbicidal rate of 5% or more and less than 20%) | 5 (Herbicidal rate of 90% or more (almost completely withered)) | 3 (Herbicidal rate of 40% or more and less than 70%) | 0 (Herbicidal rate of 5% or less (almost no effect)) | 3 (Herbicidal rate of 40% or more and less than 70%) | 5 (Herbicidal rate of 90% or more (almost completely withered)) | 4 (Herbicidal rate of 70% or more and less than 90%) | 2 (Herbicidal rate of 20% or more and less than 40%) | 4 (Herbicidal rate of 70% or more and less than 90%) | 5 (Herbicidal rate of 90% or more (almost completely withered)) | 5 (Herbicidal rate of 90% or more (almost completely withered)) | 4 (Herbicidal rate of 70% or more and less than 90%) | 3 (Herbicidal rate of 40% or more and less than 70%) | 4 (Herbicidal rate of 70% or more and less than 90%) | 5 (Herbicidal rate of 90% or more (almost completely withered)) | L: windgrass, herbicidal effect grade (windgrass [17]): 5 (Herbicidal rate of 90% or more (almost completely withered)); I: wild oat, herbicidal effect grade (wild oat [18]): 0 (Herbicidal rate of 5% or less (almost no effect)); herbicidal effect on barnyard grass (H) (barnyard grass [19]): 5 (Herbicidal rate of 90% or more (almost completely withered)); Herbicidal effect by foliage application, P: chickweed (chickweed [20]): 5 (Herbicidal rate of 90% or more (almost completely withered)); Herbicidal effect by foliage application, J: blackgrass (blackgrass [21]): 4 (Herbicidal rate of 70% or more and less than 90%); R: persian speedwell, herbicidal effect grade (persian speedwell [22]): 5 (Herbicidal rate of 90% or more (almost completely withered)); G: green foxtail, herbicidal effect grade (green foxtail [23]): 5 (Herbicidal rate of 90% or more (almost completely withered)); P: chickweed, herbicidal effect grade (chickweed [24]): 5 (Herbicidal rate of 90% or more (almost completely withered)); J: blackgrass, herbicidal effect grade (blackgrass [25]): 4 (Herbicidal rate of 70% or more and less than 90%); herbicidal effect on rice flat sedge (E) (rice flat sedge): 5 (Herbicidal rate of 90% or more (almost completely withered))

From patent US20230085307A1, “PYRIDAZINONE COMPOUND AND HERBICIDE” (NISSAN CHEMICAL CORPORATION, priority 2019, published 2023)
